Reference: ChEMBL document CHEMBL1909294, “Translating clinical findings into knowledge in drug safety evaluation--drug induced liver injury prediction system (DILIps)” (PLoS Comput Biol, 2011)

Assays:
[1] = tested on: Hepatotoxicity;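 as to HepSE cholelithiasis: hepatic side effect score for cholelithiasis, drawn from the DILIps training data for predicting drug-induced liver injury; call rule not given here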;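 as to HepSE hepatitis: Hepatitis-related hepatic side effect score taken from the training data of DILIps, a prediction system for drug-induced liver injury; call rule not given here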;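 as to HepSE hepatomegaly: hepatic side effect score for hepatomegaly, taken from the training set of the DILIps drug-induced liver injury prediction system; call rule not given here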;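 as to HepSE jaundice: Jaundice-related hepatic side-effect score drawn from the training data of the DILIps (drug-induced liver injury prediction system); call rule not given here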; as to HepSE liver disease: call rule not given here;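 as to HepSE liver function tests abnormal: hepatic side effect score taken from the DILIps (drug-induced liver injury prediction system) training data, here covering abnormal liver function test findings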
[2] = tested on: Hepatotoxicity; remark: listed apart in the source;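 as to HepSE cholelithiasis: hepatic side effect score for cholelithiasis, drawn from the DILIps training data for predicting drug-induced liver injury; call rule not given here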;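 as to HepSE hepatitis: Hepatitis-related hepatic side effect score taken from the training data of DILIps, a prediction system for drug-induced liver injury; call rule not given here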;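 as to HepSE hepatomegaly: hepatic side effect score for hepatomegaly, taken from the training set of the DILIps drug-induced liver injury prediction system; call rule not given here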;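 as to HepSE jaundice: Jaundice-related hepatic side-effect score drawn from the training data of the DILIps (drug-induced liver injury prediction system); call rule not given here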; as to HepSE liver disease: call rule not given here;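 as to HepSE liver function tests abnormal: hepatic side effect score taken from the DILIps (drug-induced liver injury prediction system) training data, here covering abnormal liver function test findings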
[3] = tested on: Hepatotoxicity; remark: listed apart in the source;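 as to HepSE cholelithiasis: hepatic side effect score for cholelithiasis, drawn from the DILIps training data for predicting drug-induced liver injury; call rule not given here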;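 as to HepSE hepatitis: Hepatitis-related hepatic side effect score taken from the training data of DILIps, a prediction system for drug-induced liver injury; call rule not given here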;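 as to HepSE hepatomegaly: hepatic side effect score for hepatomegaly, taken from the training set of the DILIps drug-induced liver injury prediction system; call rule not given here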;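 as to HepSE jaundice: Jaundice-related hepatic side-effect score drawn from the training data of the DILIps (drug-induced liver injury prediction system); call rule not given here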; as to HepSE liver disease: call rule not given here;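 as to HepSE liver function tests abnormal: hepatic side effect score taken from the DILIps (drug-induced liver injury prediction system) training data, here covering abnormal liver function test findings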
[4] = tested on: Hepatotoxicity; remark: listed apart in the source;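 as to HepSE cholelithiasis: hepatic side effect score for cholelithiasis, drawn from the DILIps training data for predicting drug-induced liver injury; call rule not given here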;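 as to HepSE hepatitis: Hepatitis-related hepatic side effect score taken from the training data of DILIps, a prediction system for drug-induced liver injury; call rule not given here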;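 as to HepSE hepatomegaly: hepatic side effect score for hepatomegaly, taken from the training set of the DILIps drug-induced liver injury prediction system; call rule not given here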;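 as to HepSE jaundice: Jaundice-related hepatic side-effect score drawn from the training data of the DILIps (drug-induced liver injury prediction system); call rule not given here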; as to HepSE liver disease: call rule not given here;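 as to HepSE liver function tests abnormal: hepatic side effect score taken from the DILIps (drug-induced liver injury prediction system) training data, here covering abnormal liver function test findings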
[5] = tested on: Hepatotoxicity; remark: listed apart in the source; as to HepSE liver disease: call rule not given here
[6] = tested on: Hepatotoxicity; remark: listed apart in the source; as to HepSE liver disease: call rule not given here
[7] = tested on: Hepatotoxicity; remark: listed apart in the source
[8] = tested on: Hepatotoxicity; remark: listed apart in the source
[9] = tested on: Hepatotoxicity; remark: listed apart in the source
[10] = tested on: Hepatotoxicity; remark: listed apart in the source
[11] = tested on: Hepatotoxicity; remark: listed apart in the source
[12] = tested on: Hepatotoxicity; remark: listed apart in the source
[13] = tested on: Hepatotoxicity; remark: listed apart in the source
[14] = tested on: Hepatotoxicity; remark: listed apart in the source

C=CC(N)CCC(=O)O (stereo not drawn) [VIGABATRIN]
HepSE_liver disease [1]: 0 | HepSE_cholelithiasis [2]: 0 | HepSE_hepatomegaly [3]: 0 | HepSE_hepatitis [4]: 0 | HepSE_liver fatty [5]: 0 | HepSE_bilirubinemia [6]: 0 | HepSE_liver function tests abnormal [7]: 0 | HepSE_hepatic necrosis [8]: 0 | HepSE_jaundice [9]: 0 | HepSE_elevated liver function tests [10]: 0 | HepSE_Combined Scores [11]: 0 | HepSE_cholecystitis [12]: 0 | HepSE_hepatic failure [13]: 0 | HepSE_cirrhosis [14]: 0

CC[C@]1(O)C[C@@H]2CN(CCc3c([nH]c4ccccc34)[C@@](C(=O)OC)(c3cc4c(cc3OC)N(C)[C@H]3[C@@](O)(C(=O)OC)[C@H](OC(C)=O)[C@]5(CC)C=CCN6CC[C@]43[C@@H]65)C2)C1 [VINBLASTINE]
HepSE_liver disease [1]: 0 | HepSE_cholelithiasis [2]: 0 | HepSE_hepatomegaly [3]: 0 | HepSE_hepatitis [4]: 0 | HepSE_liver fatty [5]: 0 | HepSE_bilirubinemia [6]: 0 | HepSE_liver function tests abnormal [7]: 0 | HepSE_hepatic necrosis [8]: 0 | HepSE_jaundice [9]: 0 | HepSE_elevated liver function tests [10]: 0 | HepSE_Combined Scores [11]: 0 | HepSE_cholecystitis [12]: 0 | HepSE_hepatic failure [13]: 0 | HepSE_cirrhosis [14]: 0

CC[C@]1(O)C[C@H]2CN(CCc3c([nH]c4ccccc34)[C@@](C(=O)OC)(c3cc4c(cc3OC)N(C=O)[C@H]3[C@@](O)(C(=O)OC)[C@H](OC(C)=O)[C@]5(CC)C=CCN6CC[C@]43[C@@H]65)C2)C1 [VINCRISTINE]
HepSE_liver disease [1]: 0 | HepSE_cholelithiasis [2]: 0 | HepSE_hepatomegaly [3]: 0 | HepSE_hepatitis [4]: 0 | HepSE_liver fatty [5]: 0 | HepSE_bilirubinemia [6]: 0 | HepSE_liver function tests abnormal [7]: 0 | HepSE_hepatic necrosis [8]: 0 | HepSE_jaundice [9]: 0 | HepSE_elevated liver function tests [10]: 0 | HepSE_Combined Scores [11]: 0 | HepSE_cholecystitis [12]: 0 | HepSE_hepatic failure [13]: 0 | HepSE_cirrhosis [14]: 0

CCC1=C[C@@H]2CN(C1)Cc1c([nH]c3ccccc13)[C@@](C(=O)OC)(c1cc3c(cc1OC)N(C)[C@H]1[C@@](O)(C(=O)OC)[C@H](OC(C)=O)[C@]4(CC)C=CCN5CC[C@]31[C@@H]54)C2 [VINORELBINE]
HepSE_liver disease [1]: 0 | HepSE_cholelithiasis [2]: 0 | HepSE_hepatomegaly [3]: 0 | HepSE_hepatitis [4]: 0 | HepSE_liver fatty [5]: 0 | HepSE_bilirubinemia [6]: 0 | HepSE_liver function tests abnormal [7]: 0 | HepSE_hepatic necrosis [8]: 0 | HepSE_jaundice [9]: 0 | HepSE_elevated liver function tests [10]: 0 | HepSE_Combined Scores [11]: 0 | HepSE_cholecystitis [12]: 0 | HepSE_hepatic failure [13]: 0 | HepSE_cirrhosis [14]: 0

C[C@@H](c1ncncc1F)[C@](O)(Cn1cncn1)c1ccc(F)cc1F [VORICONAZOLE]
HepSE_liver disease [1]: 1 | HepSE_cholelithiasis [2]: 1 | HepSE_hepatomegaly [3]: 1 | HepSE_hepatitis [4]: 1 | HepSE_liver fatty [5]: 0 | HepSE_bilirubinemia [6]: 1 | HepSE_liver function tests abnormal [7]: 1 | HepSE_hepatic necrosis [8]: 0 | HepSE_jaundice [9]: 1 | HepSE_elevated liver function tests [10]: 1 | HepSE_Combined Scores [11]: 10 | HepSE_cholecystitis [12]: 1 | HepSE_hepatic failure [13]: 1 | HepSE_cirrhosis [14]: 0

CC(=O)CC(c1ccccc1)c1c(O)c2ccccc2oc1=O (stereo not drawn) [WARFARIN]
HepSE_liver disease [1]: 0 | HepSE_cholelithiasis [2]: 0 | HepSE_hepatomegaly [3]: 0 | HepSE_hepatitis [4]: 1 | HepSE_liver fatty [5]: 0 | HepSE_bilirubinemia [6]: 0 | HepSE_liver function tests abnormal [7]: 0 | HepSE_hepatic necrosis [8]: 0 | HepSE_jaundice [9]: 1 | HepSE_elevated liver function tests [10]: 0 | HepSE_Combined Scores [11]: 2 | HepSE_cholecystitis [12]: 0 | HepSE_hepatic failure [13]: 0 | HepSE_cirrhosis [14]: 0

COc1cc(C(=O)NS(=O)(=O)c2ccccc2C)ccc1Cc1cn(C)c2ccc(NC(=O)OC3CCCC3)cc12 [ZAFIRLUKAST]
HepSE_liver disease [1]: 0 | HepSE_cholelithiasis [2]: 0 | HepSE_hepatomegaly [3]: 0 | HepSE_hepatitis [4]: 1 | HepSE_liver fatty [5]: 0 | HepSE_bilirubinemia [6]: 1 | HepSE_liver function tests abnormal [7]: 0 | HepSE_hepatic necrosis [8]: 0 | HepSE_jaundice [9]: 0 | HepSE_elevated liver function tests [10]: 1 | HepSE_Combined Scores [11]: 4 | HepSE_cholecystitis [12]: 0 | HepSE_hepatic failure [13]: 1 | HepSE_cirrhosis [14]: 0

Nc1ccn([C@H]2CC[C@@H](CO)O2)c(=O)n1 [ZALCITABINE]
HepSE_liver disease ([1]; Liver): 0 | HepSE_cholelithiasis ([2]; Liver): 0 | HepSE_hepatomegaly ([3]; Liver): 1 | HepSE_hepatitis ([4]; Liver): 1 | HepSE_liver fatty ([5]; Liver): 0 | HepSE_bilirubinemia ([6]; Liver): 1 | HepSE_liver function tests abnormal ([7]; Liver): 0 | HepSE_hepatic necrosis ([8]; Liver): 0 | HepSE_jaundice ([9]; Liver): 1 | HepSE_elevated liver function tests ([10]; Liver): 0 | HepSE_Combined Scores ([11]; Liver): 5 | HepSE_cholecystitis ([12]; Liver): 1 | HepSE_hepatic failure ([13]; Liver): 0 | HepSE_cirrhosis ([14]; Liver): 0

CCN(C(C)=O)c1cccc(-c2ccnc3c(C#N)cnn23)c1 [ZALEPLON]
HepSE_liver disease [1]: 0 | HepSE_cholelithiasis [2]: 1 | HepSE_hepatomegaly [3]: 0 | HepSE_hepatitis [4]: 0 | HepSE_liver fatty [5]: 0 | HepSE_bilirubinemia [6]: 1 | HepSE_liver function tests abnormal [7]: 1 | HepSE_hepatic necrosis [8]: 0 | HepSE_jaundice [9]: 0 | HepSE_elevated liver function tests [10]: 0 | HepSE_Combined Scores [11]: 3 | HepSE_cholecystitis [12]: 0 | HepSE_hepatic failure [13]: 0 | HepSE_cirrhosis [14]: 0

CC(=O)N[C@H]1[C@H]([C@H](O)[C@H](O)CO)OC(C(=O)O)=C[C@@H]1N=C(N)N [ZANAMIVIR]
HepSE_liver disease [1]: 0 | HepSE_cholelithiasis [2]: 0 | HepSE_hepatomegaly [3]: 0 | HepSE_hepatitis [4]: 0 | HepSE_liver fatty [5]: 0 | HepSE_bilirubinemia [6]: 0 | HepSE_liver function tests abnormal [7]: 0 | HepSE_hepatic necrosis [8]: 0 | HepSE_jaundice [9]: 0 | HepSE_elevated liver function tests [10]: 0 | HepSE_Combined Scores [11]: 0 | HepSE_cholecystitis [12]: 0 | HepSE_hepatic failure [13]: 0 | HepSE_cirrhosis [14]: 0

Cc1cn([C@H]2C[C@H](N=[N+]=[N-])[C@@H](CO)O2)c(=O)[nH]c1=O [ZIDOVUDINE]
HepSE_liver disease [1]: 0 | HepSE_cholelithiasis [2]: 0 | HepSE_hepatomegaly [3]: 1 | HepSE_hepatitis [4]: 1 | HepSE_liver fatty [5]: 0 | HepSE_bilirubinemia [6]: 1 | HepSE_liver function tests abnormal [7]: 0 | HepSE_hepatic necrosis [8]: 0 | HepSE_jaundice [9]: 1 | HepSE_elevated liver function tests [10]: 0 | HepSE_Combined Scores [11]: 4 | HepSE_cholecystitis [12]: 0 | HepSE_hepatic failure [13]: 0 | HepSE_cirrhosis [14]: 0

O=C1Cc2cc(CCN3CCN(c4nsc5ccccc45)CC3)c(Cl)cc2N1 [ZIPRASIDONE]
HepSE_liver disease [1]: 0 | HepSE_cholelithiasis [2]: 0 | HepSE_hepatomegaly [3]: 1 | HepSE_hepatitis [4]: 1 | HepSE_liver fatty [5]: 1 | HepSE_bilirubinemia [6]: 0 | HepSE_liver function tests abnormal [7]: 0 | HepSE_hepatic necrosis [8]: 0 | HepSE_jaundice [9]: 1 | HepSE_elevated liver function tests [10]: 0 | HepSE_Combined Scores [11]: 4 | HepSE_cholecystitis [12]: 0 | HepSE_hepatic failure [13]: 0 | HepSE_cirrhosis [14]: 0
